The text below walks through data of patent publication US20240238425A1, “HSD17B13 Inhibitors and/or Degraders” (Pfizer Inc., priority 2022, published 2024).

Counter-ions that a name gives are not always drawn.

The test system of this assay is HiBiT-HSD17β13 fusion protein (N-terminal HiBiT-tagged HSD17β13 isoform D) in Huh7 HiBiT-HSD17β13 OE cells. The assay is described as follows: Whole-cell Huh7-HSD17B13 HiBiT assay (degrader potency and maximal efficacy, luminescence readout). As to conditions: 24 hour incubation, geometric mean, * = geometric mean for all forms tested (parent and salt forms); for DC50: read-out: Huh7_HIBIT-HSD17β13_DC50 GMean DC50; for Huh7_HIBIT-HSD17β13_DC50 GMean Asymptote Maximum: max. concentration 1 μM. It is filed as cell-based, human. The method in brief:
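Huh7 cells stably overexpressing N-terminal HiBiT-tagged HSD17β13 isoform D, clone matched to primary hepatocyte expression, were exposed to an 11-point, 1 in 3.162 dilution series (top 1 μM final) for 24 h at 37° C. Lytic HiBiT luminescence was normalised to DMSO and parental-cell controls; DC50 from four-parameter logistic fit, with CellTiter-Glo counter screen.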

Take `Cn1c(=O)n(C2CCC(=O)NC2=O)c2ccc(CCCN3C[C@@H]4CN(c5ccc6cn([C@H]7CC[C@H](CNC(=O)c8cc(F)c(O)c(F)c8F)CC7)nc6c5)C[C@@H]4C3)cc21` (mixture of isomers) [Example 85, N-{[(1r,4r)-4-{6-[(3aR,6aS)-5-(3-{1-[(3RS)-2,6-dioxopiperidin-3-yl]-3-methyl-2-oxo-2,3-dihydro-1H-benzimidazol-5-yl}propyl)hexahydropyrrolo[3,4-c]pyrrol-2(1H)-yl]-2H-indazol-2-yl}cyclohexyl]methyl}-2,3,5-trifluoro-4-hydroxybenzamide]: the DC50 (commonly the concentration at which degradation of the target reaches its halfway point) is 0.86 nM and the “Huh7_HIBIT-HSD17β13_DC50 GMean Asymptote Maximum” value came out at 73%.

In the case of `Cn1c(=O)n(C2CCC(=O)NC2=O)c2ccc(CCCN3C[C@@H]4CCN(c5ccc6cn([C@H]7CC[C@H](CNC(=O)c8cc(F)c(O)c(F)c8F)CC7)nc6c5)C[C@@H]4C3)cc21` (mixture of isomers) [Example 102, N-{[(1r,4r)-4-{6-[(3aS,7aR)-2-(3-{1-[(3RS)-2,6-dioxopiperidin-3-yl]-3-methyl-2-oxo-2,3-dihydro-1H-benzimidazol-5-yl}propyl)octahydro-5H-pyrrolo[3,4-c]pyridin-5-yl]-2H-indazol-2-yl}cyclohexyl]methyl}-2,3,5-trifluoro-4-hydroxybenzamide, formate salt], the half-maximal degradation concentration (DC50) came to 1.5 nM and the “Huh7_HIBIT-HSD17β13_DC50 GMean Asymptote Maximum” value is 74%.

As for `Cn1c(=O)n(C2CCC(=O)NC2=O)c2ccc(CCCN3Cc4cnc(-c5ccc6cn([C@H]7CC[C@H](CNC(=O)c8cc(F)c(O)c(F)c8F)CC7)nc6c5)cc4C3)cc21` (mixture of isomers) [Example 119, N-{[(1r,4r)-4-{6-[2-(3-{1-[(3RS)-2,6-dioxopiperidin-3-yl]-3-methyl-2-oxo-2,3-dihydro-1H-benzimidazol-5-yl}propyl)-2,3-dihydro-1H-pyrrolo[3,4-c]pyridin-6-yl]-2H-indazol-2-yl}cyclohexyl]methyl}-2,3,5-trifluoro-4-hydroxybenzamide, formate salt], the DC50 was determined as 0.28 nM and the “Huh7_HIBIT-HSD17β13_DC50 GMean Asymptote Maximum” value turned out to be 75%.

Turning to `COc1cc(-c2nc([C@]34CC[C@](CNC(=O)c5cc(F)c(O)c(F)c5F)(CC3)CC4)no2)nc(N2CCN(CCCc3ccc4c(c3)n(C)c(=O)n4C3CCC(=O)NC3=O)CC2)n1` (mixture of isomers) [Example 128, N-{[4-(5-{2-[4-(3-{1-[(3RS)-2,6-dioxopiperidin-3-yl]-3-methyl-2-oxo-2,3-dihydro-1H-benzimidazol-5-yl}propyl)piperazin-1-yl]-6-methoxypyrimidin-4-yl}-1,2,4-oxadiazol-3-yl)bicyclo[2.2.2]octan-1-yl]methyl}-2,3,5-trifluoro-4-hydroxybenzamide], the DC50 turned out to be 0.4 nM and the “Huh7_HIBIT-HSD17β13_DC50 GMean Asymptote Maximum” value is 79%.

On to `Cc1ccc(C(=O)N2CCC(OC3CCN(c4ncc(-c5ccc6cn([C@H]7CC[C@H](CNC(=O)c8cc(F)c(O)c(F)c8F)CC7)nc6c5)cn4)CC3)CC2)cc1N1CCC(=O)NC1=O` [Example 57, N-{[(1r,4r)-4-(6-{2-[4-({1-[3-(2,4-dioxo-1,3-diazinan-1-yl)-4-methylbenzoyl]piperidin-4-yl}oxy)piperidin-1-yl]pyrimidin-5-yl}-2H-indazol-2-yl)cyclohexyl]methyl}-2,3,5-trifluoro-4-hydroxybenzamide, trifluoroacetate salt], for which the DC50 worked out at 4.8 nM and the “Huh7_HIBIT-HSD17β13_DC50 GMean Asymptote Maximum” value was 76%.

For `Cn1c(=O)n(C2CCC(=O)NC2=O)c2ccc(CN3CCN(c4ncc(-c5ccn6cc([C@]78CC[C@](CNC(=O)c9cc(F)c(O)c(F)c9F)(CC7)CC8)nc6c5)cn4)CC3)cc21` (mixture of isomers) [Example 84, N-{[4-(7-{2-[4-({1-[(3RS)-2,6-dioxopiperidin-3-yl]-3-methyl-2-oxo-2,3-dihydro-1H-benzimidazol-5-yl}methyl)piperazin-1-yl]pyrimidin-5-yl}imidazo[1,2-a]pyridin-2-yl)bicyclo[2.2.2]octan-1-yl]methyl}-2,3,5-trifluoro-4-hydroxybenzamide], the DC50 was found to be 0.59 nM and the “Huh7_HIBIT-HSD17β13_DC50 GMean Asymptote Maximum” value was 83%.

`Cn1c(=O)n(C2CCC(=O)NC2=O)c2ccc(CCCN3CCN(c4ccc5cn([C@]67CC[C@](CNC(=O)c8cc(F)c(O)c(F)c8F)(CC6)CC7)nc5c4)CC3)cc21` (mixture of isomers) [Example 94, N-[(4-{6-[4-(3-{1-[(3RS)-2,6-dioxopiperidin-3-yl]-3-methyl-2-oxo-2,3-dihydro-1H-benzimidazol-5-yl}propyl)piperazin-1-yl]-2H-indazol-2-yl}bicyclo[2.2.2]octan-1-yl)methyl]-2,3,5-trifluoro-4-hydroxybenzamide]: the DC50 is 0.21 nM and the “Huh7_HIBIT-HSD17β13_DC50 GMean Asymptote Maximum” value was 84%.

With `Cc1ccc(C(=O)N2CCC3(CCC(N4CCN(c5ccc6cn([C@H]7CC[C@H](CNC(=O)c8cc(F)c(O)c(F)c8F)CC7)nc6c5)CC4)CC3)C2)cc1N1CCC(=O)NC1=O` (stereo partly shown) [Example 104, N-({(1r,4r)-4-[6-(4-{2-[3-(2,4-dioxo-1,3-diazinan-1-yl)-4-methylbenzoyl]-2-azaspiro[4.5]decan-8-yl}piperazin-1-yl)-2H-indazol-2-yl]cyclohexyl}methyl)-2,3,5-trifluoro-4-hydroxybenzamide, trifluoroacetate salt], the DC50 was 3.6 nM and the “Huh7_HIBIT-HSD17β13_DC50 GMean Asymptote Maximum” value is given as 78%.

Take `Cn1c(=O)n(C2CCC(=O)NC2=O)c2ccc(CCCN3CCN(c4cnc(-c5ccn6cc([C@]78CC[C@](CNC(=O)c9cc(F)c(O)c(F)c9F)(CC7)CC8)nc6c5)nc4)CC3)cc21` (mixture of isomers) [Example 120, N-{[4-(7-{5-[4-(3-{1-[(3RS)-2,6-dioxopiperidin-3-yl]-3-methyl-2-oxo-2,3-dihydro-1H-benzimidazol-5-yl}propyl)piperazin-1-yl]pyrimidin-2-yl}imidazo[1,2-a]pyridin-2-yl)bicyclo[2.2.2]octan-1-yl]methyl}-2,3,5-trifluoro-4-hydroxybenzamide, trifluoroacetate salt]: the DC50 stood at 0.15 nM and the “Huh7_HIBIT-HSD17β13_DC50 GMean Asymptote Maximum” value stood at 82%.

Take `Cn1c(=O)n(C2CCC(=O)NC2=O)c2ccc(CCN3CCN(c4cncc(-c5ccc6cn(C7CCC(CNC(=O)c8cc(F)c(O)c(F)c8F)CC7)nc6c5)n4)CC3)cc21.O=C(O)C(F)(F)F` (racemic) [Example 14, N-{[(1r,4r)-4-(6-{6-[4-(2-{1-[(3RS)-2,6-Dioxopiperidin-3-yl]-3-methyl-2-oxo-2,3-dihydro-1H-benzimidazol-5-yl}ethyl)piperazin-1-yl]pyrazin-2-yl}-2H-indazol-2-yl)cyclohexyl]methyl}-2,3,5-trifluoro-4-hydroxybenzamide, trifluoroacetate salt]: the DC50 came to 0.23 nM and the “Huh7_HIBIT-HSD17β13_DC50 GMean Asymptote Maximum” value was determined as 85%.

On to `Cn1nc(N2CCC(=O)NC2=O)c2ccc(CCCN3CCN(c4nccc(-c5nc([C@]67CC[C@](CNC(=O)c8cc(F)c(O)c(F)c8F)(CC6)CC7)no5)n4)CC3)cc21` [Example 133, N-[(4-{5-[2-(4-{3-[3-(2,4-dioxo-1,3-diazinan-1-yl)-1-methyl-1H-indazol-6-yl]propyl}piperazin-1-yl)pyrimidin-4-yl]-1,2,4-oxadiazol-3-yl}bicyclo[2.2.2]octan-1-yl)methyl]-2,3,5-trifluoro-4-hydroxybenzamide, trifluoroacetate salt], for which the DC50 came to 2.1 nM and the “Huh7_HIBIT-HSD17β13_DC50 GMean Asymptote Maximum” value was found to be 73%.

For the molecule `Cn1c(=O)n(C2CCC(=O)NC2=O)c2ccc(CN3CCOC4(C3)CN(c3ncc(-c5ccc6cn([C@H]7CC[C@H](CNC(=O)c8cc(F)c(O)c(F)c8F)CC7)nc6c5)cn3)C4)cc21` (mixture of isomers) [Example 78, N-{[(1r,4r)-4-(6-{2-[8-({1-[(3RS)-2,6-dioxopiperidin-3-yl]-3-methyl-2-oxo-2,3-dihydro-1H-benzimidazol-5-yl}methyl)-5-oxa-2,8-diazaspiro[3.5]nonan-2-yl]pyrimidin-5-yl}-2H-indazol-2-yl)cyclohexyl]methyl}-2,3,5-trifluoro-4-hydroxybenzamide, trifluoroacetate salt], the DC50 was determined as 0.47 nM and the “Huh7_HIBIT-HSD17β13_DC50 GMean Asymptote Maximum” value is given as 78%.

As to `Cn1c(=O)n(C2CCC(=O)NC2=O)c2ccc(CN3CCN(c4ccc5cn([C@H]6CC[C@H](CNC(=O)c7cc(F)c(O)c(F)c7F)CC6)nc5c4)CC3)cc21` (mixture of isomers) [Example 51, N-{[(1r,4r)-4-{6-[4-({1-[(3RS)-2,6-dioxopiperidin-3-yl]-3-methyl-2-oxo-2,3-dihydro-1H-benzimidazol-5-yl}methyl)piperazin-1-yl]-1H-indazol-2-yl}cyclohexyl]methyl}-2,3,5-trifluoro-4-hydroxybenzamide, trifluoroacetate salt], the DC50 came out at 2.1 nM and the “Huh7_HIBIT-HSD17β13_DC50 GMean Asymptote Maximum” value is recorded as 73%.

With `Cn1c(=O)n(C2CCC(=O)NC2=O)c2ccc(CCCN3CCN(c4ncc(-c5nc([C@]67CC[C@](CNC(=O)c8cc(F)c(O)c(F)c8F)(CC6)CC7)no5)cn4)CC3)cc21` (mixture of isomers) [Example 67, N-{[4-(5-{2-[4-(3-{1-[(3RS)-2,6-dioxopiperidin-3-yl]-3-methyl-2-oxo-2,3-dihydro-1H-benzimidazol-5-yl}propyl)piperazin-1-yl]pyrimidin-5-yl}-1,2,4-oxadiazol-3-yl)bicyclo[2.2.2]octan-1-yl]methyl}-2,3,5-trifluoro-4-hydroxybenzamide, trifluoroacetate salt], the DC50 worked out at 0.18 nM and the “Huh7_HIBIT-HSD17β13_DC50 GMean Asymptote Maximum” value amounted to 89%.
